Measurements from patent US9789096B2, “Methods and compositions for selective and targeted cancer therapy” (Board of Regents of the University of Texas System, priority 2013, dated 2017).

system: H1819; experiment: Cell viability dose-response, H1819; format: cell-based, human; conditions: Homo sapiens, NCI-H1819, Tables 3 and 4; read-out: IC50 (uM) vs indicated non-small cell lung cancer cell line H1819
Procedure, shortened: (§1)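 Viability read as total ATP (Cell Titer Glo) following 4 days' compound exposure, with IC50 derived from dose-response curves. Duplicate 12-point series, top concentration 50 micromolar with 3-fold steps, on cells seeded at 15% confluence in RPMI-1640, 5% FBS, 2 mM L-glutamine.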

SMILES	IC50 [µM]
COc1ccc2nc(NC(=O)c3ccc(Br)cc3)sc2c1 [SW000931]	308
COc1ccc(C(=O)Nc2nc3ccccc3s2)cc1 [SW003087]	37.4
COC(=O)c1ccc(C(=O)Nc2nc3cc(N)ccc3s2)cc1 [SW004400]	54.6
COc1ccc2nc(NC(=O)c3ccc(F)cc3)sc2c1 [SW008027]	67.3
O=C(O)c1sc2ccccc2c1Cl [SW138238]	1170
COc1ccc2nc(NS(=O)(=O)c3ccc([N+](=O)[O-])cc3)sc2c1 [SW166933]	55.2
COc1ccc(C(=O)Nc2nc3cc(N)ccc3s2)cc1 [SW202739]	132
Cc1cc2sc(N)nc2cc1[N+](=O)[O-] [SW202740]	82.5
Nc1ccc2sc(NC(=O)c3ccccc3)nc2c1 [SW202741]	11.9
COc1ccc2nc(NC(=O)c3ccccc3)sc2c1 [SW202743]	19.8
COc1ccc2nc(NC(=O)c3cccc(C)c3)sc2c1 [SW202744]	53.5
COc1ccc(C(=O)Nc2nc3ccc(OC)cc3s2)cc1 [SW202745]	64.3
COc1cccc(C(=O)Nc2nc3ccc(OC)cc3s2)c1 [SW202747]	20.5
COc1ccc2nc(NC(=O)Cc3ccccc3)sc2c1 [SW202749]	57.6
COc1ccc2nc(NS(=O)(=O)c3ccccc3)sc2c1 [SW202750]	144
COc1ccc2nc(NC(=O)c3ccc([N+](=O)[O-])o3)sc2c1 [SW202753]	18.2

system: H2122; experiment: Cell viability dose-response, H2122; format: cell-based, human; conditions: Homo sapiens, NCI-H2122, Tables 3 and 4; read-out: IC50 (uM) vs indicated non-small cell lung cancer cell line H2122
Procedure, shortened: as §1

SMILES	IC50 [µM]
COc1ccc2nc(NC(=O)c3ccc(Br)cc3)sc2c1 [SW000931]	2.62
COc1ccc(C(=O)Nc2nc3ccccc3s2)cc1 [SW003087]	2.62
COC(=O)c1ccc(C(=O)Nc2nc3cc(N)ccc3s2)cc1 [SW004400]	297
COc1ccc2nc(NC(=O)c3ccc(F)cc3)sc2c1 [SW008027]	0.899
O=C(Nc1ccc(NC(=O)c2sc3ccccc3c2Cl)cc1)c1ccco1 [SW163400]	0.897
COc1ccc2nc(NS(=O)(=O)c3ccc([N+](=O)[O-])cc3)sc2c1 [SW166933]	490
COc1ccc(C(=O)Nc2nc3cc(N)ccc3s2)cc1 [SW202739]	114
Nc1ccc2sc(NC(=O)c3ccccc3)nc2c1 [SW202741]	8.13
COc1ccc2nc(NC(=O)c3ccccc3)sc2c1 [SW202743]	0.538
COc1ccc2nc(NC(=O)c3cccc(C)c3)sc2c1 [SW202744]	1.16
COc1ccc(C(=O)Nc2nc3ccc(OC)cc3s2)cc1 [SW202745]	1.09
COc1cccc(C(=O)Nc2nc3ccc(OC)cc3s2)c1 [SW202747]	0.306
COc1ccc2nc(NC(=O)Cc3ccccc3)sc2c1 [SW202749]	60.4
COc1ccc2nc(NC(=O)c3ccc([N+](=O)[O-])o3)sc2c1 [SW202753]	4.36
CCOC(=O)c1c(NC(=O)c2ccccc2)sc2c1CCCC2 [SW202858-1]	2.69

system: H2073; experiment: Cell viability dose-response, H2073; format: cell-based, human; conditions: Homo sapiens, NCI-H2073, Tables 3 and 4; read-out: IC50 (uM) vs indicated non-small cell lung cancer cell line H2073
Method: (§2) FIG. 6A. […] Cell viability is plotted vs. compound concentration. Compound was added to cells plated at 15% confluence in 96-well plates in RPMI-1640 media supplemented with 5% Fetal Bovine Serum and 2 mM L-Glutamine. After 4 days of incubation, ATP levels were measured using Cell Titer Glo (Promega). Data are presented as the average of 2 replicates ±SEM.
(§3) Selectivity may be measured by the half maximal inhibitory concentration (IC50), which, as used herein, is a measure of the effectiveness of a compound in killing cells. This quantitative measure indicates how much of a particular compound is needed to kill a particular cell population by half (e.g., as indicated by the amount of ATP). […] The IC50 can be determined by constructing a dose-response curve. The lower the IC50, the higher the potency, and the greater the difference between IC50 values for different cell lines (e.g., sensitive lines vs. insensitive lines, and sensitive lines vs. normal lines) the greater the selectivity. […]
With this information, we synthesized and tested a series of small molecules derived in conception from the oxalamide and chromone scaffold including N-acyl ureas, as shown in Tables 6-8. Each compound was tested in a 12-point dose-response study starting at 50 micromolar and decreasing in 3-fold increments to sub-nanomolar concentrations, in duplicate. Additionally, one or more additional cell line was tested in the same way.

SMILES	IC50 [µM]
COc1ccc2nc(NC(=O)c3ccc(Br)cc3)sc2c1 [SW000931]	2.33
COc1ccc(C(=O)Nc2nc3ccccc3s2)cc1 [SW003087]	11.7
COC(=O)c1ccc(C(=O)Nc2nc3cc(N)ccc3s2)cc1 [SW004400]	182
COc1ccc2nc(NC(=O)c3ccc(F)cc3)sc2c1 [SW008027]	5.1
COc1ccc2nc(NS(=O)(=O)c3ccc([N+](=O)[O-])cc3)sc2c1 [SW166933]	55.4
COc1ccc(C(=O)Nc2nc3cc(N)ccc3s2)cc1 [SW202739]	126
Cc1cc2sc(N)nc2cc1[N+](=O)[O-] [SW202740]	114
Nc1ccc2sc(NC(=O)c3ccccc3)nc2c1 [SW202741]	9.79
COc1ccc2nc(NC(=O)c3ccccc3)sc2c1 [SW202743]	7.04
COc1ccc2nc(NC(=O)c3cccc(C)c3)sc2c1 [SW202744]	25.6
COc1ccc(C(=O)Nc2nc3ccc(OC)cc3s2)cc1 [SW202745]	2.12
COc1cccc(C(=O)Nc2nc3ccc(OC)cc3s2)c1 [SW202747]	10.3
COc1ccc2nc(NC(=O)Cc3ccccc3)sc2c1 [SW202749]	70.4
COc1ccc2nc(NS(=O)(=O)c3ccccc3)sc2c1 [SW202750]	97.6
COc1ccc2nc(NC(=O)c3ccc([N+](=O)[O-])o3)sc2c1 [SW202753]	6.25

system: HCC44; experiment: Cell viability dose-response, HCC44; format: cell-based, human; conditions: Homo sapiens, HCC44, Tables 3 and 4; read-out: IC50 (uM) vs indicated non-small cell lung cancer cell line HCC44
Procedure, shortened: (§4)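 Proliferation/viability determined by ATP content following 4-day incubation with test compound in RPMI-1640 + 5% serum + 2 mM glutamine. IC50 taken as the concentration halving ATP signal on the dose-response curve.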

SMILES	IC50 [µM]
O=C(Nc1ccc(NC(=O)c2sc3ccccc3c2Cl)cc1)c1ccco1 [SW163400]	723

system: H2009; experiment: Cell viability dose-response, H2009; format: cell-based, human; conditions: Homo sapiens, NCI-H2009; Tables 3 and 4; read-out: IC50 (uM) vs indicated non-small cell lung cancer cell line H2009
Procedure, shortened: as §4

SMILES	IC50 [µM]
COc1ccc(C(=O)Nc2nc3ccccc3s2)cc1 [SW003087]	31.3
COC(=O)c1ccc(C(=O)Nc2nc3cc(N)ccc3s2)cc1 [SW004400]	77.5
COc1ccc2nc(NC(=O)c3ccc(F)cc3)sc2c1 [SW008027]	24.6
O=C(O)c1sc2ccccc2c1Cl [SW138238]	179
COc1ccc(C(=O)Nc2nc3cc(N)ccc3s2)cc1 [SW202739]	137
Cc1cc2sc(N)nc2cc1[N+](=O)[O-] [SW202740]	111
Nc1ccc2sc(NC(=O)c3ccccc3)nc2c1 [SW202741]	8.42
COc1ccc2nc(NC(=O)c3ccccc3)sc2c1 [SW202743]	20.6
COc1ccc2nc(NC(=O)c3cccc(C)c3)sc2c1 [SW202744]	24.8
COc1cccc(C(=O)Nc2nc3ccc(OC)cc3s2)c1 [SW202747]	21.2
COc1ccc2nc(NC(=O)Cc3ccccc3)sc2c1 [SW202749]	75.2
COc1ccc2nc(NC(=O)c3ccc([N+](=O)[O-])o3)sc2c1 [SW202753]	13.4
CCOC(=O)c1c(NC(=O)c2ccccc2)sc2c1CCCC2 [SW202858-1]	38.6

system: HBEC30KT; experiment: Cell viability (ATP, Cell Titer Glo, 4 days), HBEC30KT; format: cell-based, human; conditions: Homo sapiens, Tables 3 and 4; read-out: HBEC30KT IC50
Method: as §2, §3

SMILES	IC50 [µM]
COc1ccc2nc(NC(=O)c3ccc(Br)cc3)sc2c1 [SW000931]	360
COc1ccc(C(=O)Nc2nc3ccccc3s2)cc1 [SW003087]	100
COC(=O)c1ccc(C(=O)Nc2nc3cc(N)ccc3s2)cc1 [SW004400]	74.3
COc1ccc2nc(NC(=O)c3ccc(F)cc3)sc2c1 [SW008027]	32.2
O=C(O)c1sc2ccccc2c1Cl [SW138238]	4950
O=C(Nc1ccc(NC(=O)c2sc3ccccc3c2Cl)cc1)c1ccco1 [SW163400]	69.3
COc1ccc2nc(NS(=O)(=O)c3ccc([N+](=O)[O-])cc3)sc2c1 [SW166933]	4950
COc1ccc(C(=O)Nc2nc3cc(N)ccc3s2)cc1 [SW202739]	250
Cc1cc2sc(N)nc2cc1[N+](=O)[O-] [SW202740]	129
Nc1ccc2sc(NC(=O)c3ccccc3)nc2c1 [SW202741]	13
COc1ccc2nc(NC(=O)c3ccccc3)sc2c1 [SW202743]	22.3
COc1ccc2nc(NC(=O)c3cccc(C)c3)sc2c1 [SW202744]	36.2
COc1ccc(C(=O)Nc2nc3ccc(OC)cc3s2)cc1 [SW202745]	336
COc1cccc(C(=O)Nc2nc3ccc(OC)cc3s2)c1 [SW202747]	29.5
COc1ccc2nc(NC(=O)Cc3ccccc3)sc2c1 [SW202749]	234
COc1ccc2nc(NS(=O)(=O)c3ccccc3)sc2c1 [SW202750]	127
COc1ccc2nc(NC(=O)c3ccc([N+](=O)[O-])o3)sc2c1 [SW202753]	20
CCOC(=O)c1c(NC(=O)c2ccccc2)sc2c1CCCC2 [SW202858-1]	48.8
